One test relates to MOG-specific Th17 cell. The test is described as follows: Peripheral T cell responses (Th17) by flow cytometry in MOG-myelitis mice. In kind it is in vivo. The settings on record: systemic administration; FIG. 12 panel A, each bar a single mouse. As to the method: Mianserin treatment. Mice are induced with MOG-myelitis as described. Groups of mice initially receive intraperitoneally 1-10 mg/kg/day. The start day can vary between days 5-12 (before disease onset) and 14-20 (after disease onset). Peripheral T cell responses and CNS infiltration are analyzed by flow cytometry. Lumbar spinal cords are examined immunohistologically to characterize the degrees of axonal degeneration, secondary demyelination and CNS infiltration by peripheral immune cells during the various stages of MaG-myelitis. The mice are perfused with 4% paraformaldehyde and sections from lumbar spinal cord arestained with various antibodies and analyzed by confocal microscopy. In every step the degree of inflammation, axonal degeneration and demyelination is confirmed by using the following antibodies: CD11b (macrophages), CD3 (T cells), CD11c (dendritic cells), Glial fibrillary acidic protein (GFAP astroglia), Myelin Basic protein (MBP, for myelin), and SMI32 (hypophosphorylated NF—H, disrupted axons). To examine intracellular TLR and partner molecules antibodies against TLR3, 8 and 9, MyD88 and IRAK4, NALP1, ASC, active caspase-1, and IL-1 r3 are used.
Peripheral T cell responses. […]
Flow cytometry. […] Immunostained cells are analyzed using a Cyan FACS (Dako Cytomation).

For a further test, the system named is MOG-myelitis. The test is described as follows: MOG peptide myelitis, neurological deficit scoring after systemic mianserin. In kind it is in vivo, mice. The conditions noted are these: systemic administration; FIG. 12 panels B and C, n=8. As for the experimental part:
Induction of MOG peptide myelitis, and clinical evaluation. MOG peptide myelitis is elicited in 3 month old male mice by subcutaneous flank administration of 300 μg of rodent MOG peptide 35-55 emulsified in CFA. The mice receive 75 ng of pertussis toxin intraperitoneally on days 0 and 2, and are weighed and scored daily for neurological deficits by 2 blinded observers. Neurological scoring is on a 5 point scale: limp tail or waddling gait=1; limp tail and waddling gait=2; single limb paresis and ataxia 2.5; double limb paresis=3; single limb paralysis and paresis of a second limb=3.5; full paralysis of 2 limbs=4; and death (or sacrifice owing to inanition=5) (Bannerman et al, Brain 128:1877-1886 2005; Bannerman et al., Glia 55:57-64 2008; and Soulika et al, J Neurosci 29:14965-14979 2009).
Mianserin treatment. Mice are induced with MOG-myelitis as described. Groups of mice initially receive intraperitoneally 1-10 mg/kg/day. The start day can vary between days 5-12 (before disease onset) and 14-20 (after disease onset). Peripheral T cell responses and CNS infiltration are analyzed by flow cytometry. […] The mice are perfused with 4% paraformaldehyde and sections from lumbar spinal cord arestained with various antibodies and analyzed by confocal microscopy. […]

SMILES strings stand for the structures.

As for `CN1CCN2c3ccccc3Cc3ccccc3C2C1` (centres unmarked) [mianserin], in the test with MOG-specific Th17 cell, the “MOG-specific Th17 cell generation in the periphery” value is recorded as “does not affect”. Further, in the test with MOG-myelitis, the “neurological symptoms associated with MOG-myelitis” value is listed as “diminishes”.

(Values after patent publication US20120207766A1, “INTRACELLULAR TOLL-LIKE RECEPTORS PATHWAYS AND AXONAL DEGENERATION” (priority 2009, published 2012).)
